How the values were obtained:
[1] = Inhibitory activity against Opioid receptor delta 1 expressed in HEK293 cells; type: cell-based, Homo sapiens
Nociceptin receptor = Nociceptin receptor (Homo sapiens, UniProt P41146); assay: Inhibitory activity against Opioid receptor like 1 expressed in HEK293 cells; type: cell-based
[2] = Inhibitory activity against Opioid receptor mu 1 expressed in HEK293 cells; type: cell-based, Homo sapiens
[3] = Inhibitory activity against Opioid receptor kappa 1 expressed in HEK293 cells; type: cell-based, Homo sapiens

Sequence of Nociceptin receptor (P41146 whole entry): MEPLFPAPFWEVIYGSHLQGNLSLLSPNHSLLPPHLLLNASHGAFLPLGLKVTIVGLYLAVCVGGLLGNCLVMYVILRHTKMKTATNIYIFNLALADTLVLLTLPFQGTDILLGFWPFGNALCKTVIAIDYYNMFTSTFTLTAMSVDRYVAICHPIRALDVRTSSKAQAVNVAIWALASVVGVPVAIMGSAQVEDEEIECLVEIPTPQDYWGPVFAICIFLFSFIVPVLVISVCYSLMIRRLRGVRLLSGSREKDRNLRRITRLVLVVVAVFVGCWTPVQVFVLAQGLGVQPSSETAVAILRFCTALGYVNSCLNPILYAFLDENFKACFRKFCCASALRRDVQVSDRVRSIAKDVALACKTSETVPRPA

Row | IC50 [1] [µM] | IC50 (Nociceptin receptor) [µM] | IC50 [2] [µM] | IC50 [3] [µM] | Structure (SMILES)
1 | > 5 | > 5 | 4.19 | 4.38 | CNCC[C@@H](Oc1ccccc1C)c1ccccc1 [ATOMOXETINE]
2 | 1.49 | > 5 | 0.164 | 0.088 | CNCC[C@@H](Oc1ccc(O)cc1C)c1ccccc1

Reference: ChEMBL document CHEMBL1137140, “Synthesis and biological evaluation of the major metabolite of atomoxetine: elucidation of a partial kappa-opioid agonist effect” (Bioorg Med Chem Lett, 2004)
